Laboratory results published in patent US20240294499A1, “TARGETED PROTEIN DEGRADATION USING BIFUNCTIONAL COMPOUNDS THAT BIND UBIQUITIN LIGASE AND TARGET MCL-1 PROTEIN” (Captor Therapeutics S.A., priority 2021, published 2024).

How the values were obtained:
Assay type in all cases: cell-based
MV-4-11 cells = test: Mitochondrial potential changes in cancer cells, flow cytometry (TMRE); details: 5 hours
Experimental: The effect of compounds 220 and 268 of the invention in MV-4-11 cells was investigated using the following protocol.
MV-4-11 cells were seeded on 384-well plates (0.05 ml) in growth medium containing 1% FBS and 50 nM tetramethylrhodamine ethyl ester (TMRE). Immediately after seeding, compounds in appropriate concentrations were added directly to the cell culture medium. After 5 hours incubation, cells were analyzed by flow cytometry (LSR Fortessa X-20; BD Biosciences). Results were evaluated using FlowJo (V10) software.
FIG. 7 presents the effect of the compound in the mitochondrial potential of MV-4-11 cells treated with 220 for 5 hours. Compound concentration is specified in the top-left corner of each histogram; Dimethyl sulfoxide (DMSO) was used as vehicle control. Population of interest and the percentage of cells included are highlighted with a red bar and shown in bold red ink, respectively.
FIG. 8 presents the concentration dependent decrease (compared to DMSO control) of the population of cells with normal polarized mitochondria after treatment of MV-4-11 cells with the compounds 220 and 268 for 5 hours.

MCL-1 protein = MCL-1 protein (Homo sapiens, UniProt Q07820); test: OPM-2 cells: MCL-1 protein degradation, Simple Western; design: endogenous in cells; host or cells: OPM-2; details: OPM-2 cell line, 6 h treatment, 100 nM compound, vs DMSO
Source text: The effect of various compounds of the invention and the reference compounds on MCL-1protein degradation in the OPM-2 cell line was investigated, using the degradation assay protocol below.
OPM-2 cells were maintained in RPMI-1640 medium, supplemented with penicillin/streptomycin and 10% Fetal Bovine Serum (FBS). During the treatment, FBS concentration was reduced to 1%.
Compound stocks were pre-diluted in DMSO and added directly to the cells growth medium (final DMSO concentration: 0.5%).
OPM-2 cells were collected, centrifuged (250 rcf, 5 min), resuspended in a growth medium containing 1% FBS and counted. The cell suspension was then adjusted to 1×10^6 cell/ml using a growth medium containing 1% FBS. Afterwards, 0.5×10^6 cells were seeded on 24-well plates in 0.5 mL of medium per well. Immediately after seeding cells, compounds in appropriate concentrations were added to the cell culture medium.
Following the treatment with the compounds, cells were collected from the plates and suspended in a lysis buffer (2% SDS, 50 mM Tris, pH 8.0, 100 U/ml Pierce Universal Nuclease for Cell Lysis, cOmplete EDTA-free Protease Inhibitor Cocktail) and incubated on ice for 45 min.
The following steps, including sample loading, protein separation, immunoprobing or labelling, washes and detection analysis was performed using Jess from ProteinSimple, an automatic system for analyzing protein levels in cell lysates (12-230 kDa Jess or Wes separation module 8×25 capillaries, protein normalization assay, no. SM-PN01-1). The Protein of Interest was detected using MCL-1 (D35A5) Rabbit monoclonal antibody (Cell Signaling, #5453, LOT: 4). Antibody was diluted in a ratio of 1:100 in Antibody diluent.
[%] of protein reduction is calculated in comparison to the cells treated with DMSO, which stand for 0%.
The results for the 6 h treatment with 100 nM compounds are shown in Table 9, using the following labels: • <20% for 0-19% of MCL-1 protein reduction, • ≥20% for 20-39% of MCL-1 protein reduction, • ≥40% for 40-100% of MCL-1 protein reduction.

OPM-2 cells = test: Cell viability assay (CellTiter-Glo), OPM-2; details: Homo sapiens, 24 hours incubation, 1% FBS, read-out: Average pIC50 by molecule OPM-2 (converted)
Source text: The effect of various compounds of the invention on the viability of OPM-2, MV-4-11 and ARH-77 cell lines was investigated, using the CTG protocol described below.
OPM-2 and MV-4-11 cell lines are derived from multiple myeloma and acute myeloid leukaemia, respectively. Both cell lines are described in the literature as MCL-1 dependent lines, as opposed to lymphoblast-like ARH-77 cell line, which is described as independent of MCL-1 (Tron A E et al. Nat Commun. 2018; 9: 5341; Caenepeel S et al. Cancer Discov. 2018 December; 8(12):1582-1597).
Cells (OPM-2, MV-4-11 or ARH-77) were seeded on […] in a growth medium with FBS reduced to 1%. Next, compound stocks were pre-diluted in DMSO and added directly to the cells growth medium (final DMSO concentration: 0.5%). Compound concentrations used in this assay: 1/3 dilutions starting at 30 uM (9 to 12 points).
After 24 hours of incubation, cell viability was evaluated using CellTiter-Glo Luminescent Cell Viability Assay (Promega, cat #G7572). Luminescence signal was measured using a CLARIOstar Plus Multi-Mode Microplate Reader (574-590 nm).
Results were normalized to DMSO control.

ARH-77 cells = test: Cell viability assay (CellTiter-Glo), ARH-77; details: Homo sapiens, ARH-77, 24 hours incubation, 1% FBS, read-out: Average pIC50 by molecule ARH-77 (converted)
Summary of the method: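 Luminescent ATP readout (CellTiter-Glo) at 24 hours measured viability, expressed relative to DMSO-treated wells. Compound was added directly to the medium as a 9–12-point threefold series starting at 30 uM, at 0.5% final DMSO. The medium contained FBS reduced to 1%.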

DMS 114 cells = test: Cell viability assay (CellTiter-Glo), DMS 114; details: 72 hours incubation, 10% FBS
Source text: The effect of various compounds of the invention on the viability of DMS 114 cell line was investigated, using the CTG protocol described below.
DMS 114 cell line is derived from small-cell lung cancer, which is described in the literature as MCL-1 dependent lines [Yasuda Y et al. Cell Death & Disease 2020; 11: 177].
DMS 114 cells were detached with trypsin and then resuspended in growth medium containing 10% FBS and counted. Cell suspension was then adjusted to 5×10^4 cells/ml using growth medium containing 10% FBS. Afterwards, […] were seeded on 384-well plates (50 μl). Plates were then placed in the incubator overnight until treated. Next day, compounds were added using ECHO 555 liquid handler. Compound concentrations used in this assay: 1/3 dilutions starting at 30 uM (9 to 12 points).
After 72 hours of incubation, cell viability was evaluated using CellTiter-Glo Luminescent Cell Viability Assay (Promega, cat #G7572). Luminescence signal was measured using a CLARIOstar Plus Multi-Mode Microplate Reader (574-590 nm).

Sequence of MCL-1 protein (Q07820 whole entry): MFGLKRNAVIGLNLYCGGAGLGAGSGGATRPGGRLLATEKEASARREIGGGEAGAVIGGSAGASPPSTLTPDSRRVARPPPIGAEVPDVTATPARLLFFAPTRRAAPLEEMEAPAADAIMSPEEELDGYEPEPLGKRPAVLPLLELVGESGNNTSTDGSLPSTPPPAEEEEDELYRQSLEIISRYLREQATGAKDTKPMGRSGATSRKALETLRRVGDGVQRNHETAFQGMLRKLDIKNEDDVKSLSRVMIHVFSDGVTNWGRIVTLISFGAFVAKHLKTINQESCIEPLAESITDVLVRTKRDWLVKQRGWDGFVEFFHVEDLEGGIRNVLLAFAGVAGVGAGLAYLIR

Structure (SMILES) | mitochondrial potential (population of cells with normal polarized mitochondria) (MV-4-11 cells) | Simple Western, % of protein reduction (MCL-1 protein) [%] | IC50 (OPM-2 cells) [nM] | IC50 (ARH-77 cells) [µM] | other results
Cc1nn(C)c(C)c1-c1c(Cl)ccc2c(CCCOc3cccc4cc(F)ccc34)c(C(=O)O)n(CCN3CCN(C(=O)Cn4c(C)nc5c(C(=O)NC6CCC(=O)NC6=O)cccc54)CC3)c12 (stereo not shown) [Compound 268, 6-chloro-1-{2-[4-(2-{4-[(2,6-dioxopiperidin-3-yl)carbamoyl]-2-methyl-1H-1,3-benzodiazol-1-yl}acetyl)piperazin-1-yl]ethyl}-3-{3-[(6-fluoronaphthalen-1-yl)oxy]propyl}-7-(1,3,5-trimethyl-1H-pyrazol-4-yl)-1H-indole-2-carboxylic acid] | concentration dependent depolarization of mitochondria |  |  |  | 
Cc1nn(C)c(C)c1-c1c(Cl)ccc2c(CCCOc3cccc4ccccc34)c(C(=O)O)n(CCN3CCN(C(=O)COc4cccc5c4C(=O)N(C4CCC(=O)NC4=O)C5=O)CC3)c12 (stereo not shown) [Compound 204, 6-chloro-1-(2-(4-(2-((2-(2,6-dioxopiperidin-3-yl)-1,3-dioxoisoindolin-4-yl)oxy)acetyl)piperazin-1-yl)ethyl)-3-(3-(naphthalen-1-yloxy)propyl)-7-(1,3,5-trimethyl-1H-pyrazol-4-yl)-1H-indole-2-carboxylic acid] |  | ≥40 | ≤ 1000 |  | 
Cc1nn(C)c(C)c1-c1c(F)ccc2c(CCCOc3cccc4cc(F)ccc34)c(C(=O)O)n(CCN3CCN(C(=O)COc4cccc5c4C(=O)N(C4CCC(=O)NC4=O)C5=O)CC3)c12 (stereo not shown) [Compound 215, 1-{2-[4-(2-{[2-(2,6-dioxopiperidin-3-yl)-1,3-dioxo-2,3-dihydro-1H-isoindol-4-yl]oxy}acetyl)piperazin-1-yl]ethyl}-6-fluoro-3-{3-[(6-fluoronaphthalen-1-yl)oxy]propyl}-7-(1,3,5-trimethyl-1H-pyrazol-4-yl)-1H-indole-2-carboxylic acid] |  | ≥20 | ≤ 1000 |  | 
Cc1nn(C)c(C)c1-c1c(Cl)ccc2c(CCCOc3cccc4cc(F)ccc34)c(C(=O)O)n(CCN3CCN(C(=O)COc4cccc5c4CN(C4CCC(=O)NC4=O)C5=O)CC3)c12 (stereo not shown) [Compound 220, 6-chloro-1-{2-[4-(2-{[2-(2,6-dioxopiperidin-3-yl)-1-oxo-2,3-dihydro-1H-isoindol-4-yl]oxy}acetyl)piperazin-1-yl]ethyl}-3-{3-[(6-fluoronaphthalen-1-yl)oxy]propyl}-7-(1,3,5-trimethyl-1H-pyrazol-4-yl)-1H-indole-2-carboxylic acid] | concentration dependent depolarization of mitochondria |  |  | > 10 | Average pIC50 by molecule DMS 114 (DMS 114 cells): ≥6.5
Cc1nn2c(c1-c1c(Cl)ccc3c(CCCOc4cccc5cc(F)ccc45)c(C(=O)O)n(CCN4CCN(C(=O)COc5cccc6c5CN(C5CCC(=O)NC5=O)C6=O)CC4)c13)COCC2 (stereo not shown) [Compound 346, 6-Chloro-1-(2-(4-(2-((2-(2,6-dioxopiperidin-3-yl)-1-oxoisoindolin-4-yl)oxy)acetyl)piperazin-1-yl)ethyl)-3-(3-((6-fluoronaphthalen-1-yl)oxy)propyl)-7-(2-methyl-6,7-dihydro-4H-pyrazolo[5,1-c][1,4]oxazin-3-yl)-1H-indole-2-carboxylic acid] |  |  |  | > 10 | IC50 (DMS 114 cells; Homo sapiens, DMS-114, 72 h, read-out: Average pIC50 by molecule DMS 114 (converted)): ≤ 3.16 µM
